Data taken from ChEMBL document CHEMBL4002601, “A triple exon-skipping luciferase reporter assay identifies a new CLK inhibitor pharmacophore” (Bioorg Med Chem Lett, 2017).
The source made the active and inactive calls. The rule behind the calls is not given here.

Tests used:
[1] = target: T1, Dual specificity protein kinase CLK1 (Homo sapiens, UniProt P49759); assay: Inhibition of CLK mediated SF3B1 activation in human SK-MEL-2 cells assessed as MDM2-pre mRNA exon skipping after 4 hrs by luciferase reporter gene assay relative to control; format: cell-based
Target sequence in this assay (P49759 whole entry): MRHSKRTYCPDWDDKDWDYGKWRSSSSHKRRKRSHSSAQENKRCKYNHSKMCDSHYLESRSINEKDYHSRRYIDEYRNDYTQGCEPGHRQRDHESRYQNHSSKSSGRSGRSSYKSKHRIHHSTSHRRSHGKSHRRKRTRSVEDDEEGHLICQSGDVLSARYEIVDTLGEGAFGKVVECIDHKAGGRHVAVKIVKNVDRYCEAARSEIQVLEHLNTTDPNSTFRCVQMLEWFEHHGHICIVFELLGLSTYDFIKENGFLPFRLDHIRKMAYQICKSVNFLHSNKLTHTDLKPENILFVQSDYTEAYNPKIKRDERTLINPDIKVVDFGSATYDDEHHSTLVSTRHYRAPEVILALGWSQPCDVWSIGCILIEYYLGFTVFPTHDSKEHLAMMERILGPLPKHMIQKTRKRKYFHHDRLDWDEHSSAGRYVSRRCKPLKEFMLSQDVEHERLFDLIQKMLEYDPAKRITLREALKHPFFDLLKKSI

[2] = target: T1, Dual specificity protein kinase CLK1; assay: Inhibition of CLK mediated SF3B1 activation in human HeLa cells assessed as MDM2-pre mRNA exon skipping by luciferase reporter gene assay; format: cell-based
Target sequence in this assay (P49759 whole entry): as above

[3] = target: T1, Dual specificity protein kinase CLK1; assay: Inhibition of CLK mediated SF3B1 activation in human SK-MEL-2 cells assessed as MDM2-pre mRNA exon skipping at 10 uM after 4 hrs by luciferase reporter gene assay relative to control; format: cell-based; set-up: Activity: scale not given: the % may be the effect or the level left
Target sequence in this assay (P49759 whole entry, looked up): as the sequence (P49759 whole entry) above

[4] = target: T1, Dual specificity protein kinase CLK1; assay: Inhibition of human CLK1 using substrate ERMRPRKRQGSVRRRV in presence of [gamma-33P]ATP after 40 mins by scintillation counter method
Target sequence in this assay (P49759 whole entry): as above

[5] = target: Dual specificity protein kinase CLK2 (Homo sapiens, UniProt P49760); assay: Inhibition of human CLK2 using YRRAAVPPSPSLSRHSSPHQS(p)EDEEE as substrate in presence of [gamma-33P]ATP after 40 mins by scintillation counter method
[6] = target: Dual specificity protein kinase CLK4 (Homo sapiens, UniProt Q9HAZ1); assay: Inhibition of human CLK4 using YRRAAVPPSPSLSRHSSPHQS(p)EDEEE as substrate in presence of [gamma-33P]ATP after 40 mins by scintillation counter method
CDK4/Cyclin D3 [7] = target: CDK4/Cyclin D3 (Homo sapiens, UniProt P11802); assay: (§1) Inhibition of human CDK4/cyclinD3 using Histone H1 as substrate in presence of [gamma-33P]ATP after 40 mins by scintillation counter method; format: protein-complex assay
[8] = Solubility of the compound; format: physicochemical
[9] = target: Cyclin-dependent kinase 1/cyclin B1 (Homo sapiens, UniProt P06493); assay: Inhibition of human CDK1/cyclinB using Histone H1 as substrate in presence of [gamma-33P]ATP after 40 mins by scintillation counter method; format: protein-complex assay
[10] = target: T1, Dual specificity protein kinase CLK1; assay: Inhibition of CLK mediated SF3B1 activation in human Rh-18 cells assessed as MDM2-pre mRNA exon skipping at 10 uM after 8 hrs by RT-PCR method; format: cell-based
Target sequence in this assay (P49759 whole entry, looked up): as the sequence (P49759 whole entry) above

CDK6/cyclin D3 [11] = target: CDK6/cyclin D3 (Homo sapiens, UniProt Q00534); assay: (§2) Inhibition of human CDK6/cyclinD3 using Histone H1 as substrate in presence of [gamma-33P]ATP after 40 mins by scintillation counter method; format: protein-complex assay
[12] = target: Dual specificity protein kinase CLK3 (Homo sapiens, UniProt P49761); assay: Inhibition of human CLK3 using ERMRPRKRQGSVRRRV as substrate in presence of [gamma-33P]ATP after 40 mins by scintillation counter method
CDK6/cyclin D3 [13] = target: CDK6/cyclin D3 (Homo sapiens, UniProt P30281+Q00534); assay: as §2; format: protein-complex assay
CDK4/Cyclin D3 [14] = target: CDK4/Cyclin D3 (Homo sapiens, UniProt P11802+P30281); assay: as §1; format: protein-complex assay
Sequence of CDK4/Cyclin D3 (Homo sapiens, UniProt P11802+P30281) (P11802 whole entry): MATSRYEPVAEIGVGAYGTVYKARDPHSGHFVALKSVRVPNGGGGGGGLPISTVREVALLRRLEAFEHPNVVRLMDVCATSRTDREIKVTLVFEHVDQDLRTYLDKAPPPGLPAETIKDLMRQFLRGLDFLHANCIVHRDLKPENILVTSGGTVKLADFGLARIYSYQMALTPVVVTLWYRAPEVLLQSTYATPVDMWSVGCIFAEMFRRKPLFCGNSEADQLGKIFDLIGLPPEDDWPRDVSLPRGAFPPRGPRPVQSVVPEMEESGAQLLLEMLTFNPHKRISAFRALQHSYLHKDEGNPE
Sequence of CDK4/Cyclin D3 (Homo sapiens, UniProt P11802+P30281) (P30281 whole entry): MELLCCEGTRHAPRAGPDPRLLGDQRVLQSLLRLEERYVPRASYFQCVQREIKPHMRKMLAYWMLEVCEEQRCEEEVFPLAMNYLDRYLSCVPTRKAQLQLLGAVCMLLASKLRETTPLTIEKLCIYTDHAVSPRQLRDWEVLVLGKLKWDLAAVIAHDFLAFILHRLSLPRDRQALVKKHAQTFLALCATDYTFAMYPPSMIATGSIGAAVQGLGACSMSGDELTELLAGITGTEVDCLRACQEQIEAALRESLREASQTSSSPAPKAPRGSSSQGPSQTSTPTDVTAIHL

Sequence of CDK4/Cyclin D3 (Homo sapiens, UniProt P11802) (P11802 whole entry): as the sequence (P11802 whole entry) above
Sequence of CDK4/Cyclin D3 (Homo sapiens, UniProt P11802) (P30281 whole entry, further chain): as the sequence (P30281 whole entry) above
Sequence of Cyclin-dependent kinase 1/cyclin B1 (P06493 whole entry): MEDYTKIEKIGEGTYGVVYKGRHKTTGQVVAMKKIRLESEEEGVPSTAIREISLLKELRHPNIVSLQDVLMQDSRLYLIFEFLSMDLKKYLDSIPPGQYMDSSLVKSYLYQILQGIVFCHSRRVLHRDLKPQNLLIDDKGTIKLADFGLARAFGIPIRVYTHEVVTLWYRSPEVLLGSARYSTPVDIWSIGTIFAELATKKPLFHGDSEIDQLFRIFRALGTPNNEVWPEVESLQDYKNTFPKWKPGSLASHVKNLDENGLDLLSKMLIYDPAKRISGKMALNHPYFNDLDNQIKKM
Sequence of Cyclin-dependent kinase 1/cyclin B1 (P14635 whole entry, further chain): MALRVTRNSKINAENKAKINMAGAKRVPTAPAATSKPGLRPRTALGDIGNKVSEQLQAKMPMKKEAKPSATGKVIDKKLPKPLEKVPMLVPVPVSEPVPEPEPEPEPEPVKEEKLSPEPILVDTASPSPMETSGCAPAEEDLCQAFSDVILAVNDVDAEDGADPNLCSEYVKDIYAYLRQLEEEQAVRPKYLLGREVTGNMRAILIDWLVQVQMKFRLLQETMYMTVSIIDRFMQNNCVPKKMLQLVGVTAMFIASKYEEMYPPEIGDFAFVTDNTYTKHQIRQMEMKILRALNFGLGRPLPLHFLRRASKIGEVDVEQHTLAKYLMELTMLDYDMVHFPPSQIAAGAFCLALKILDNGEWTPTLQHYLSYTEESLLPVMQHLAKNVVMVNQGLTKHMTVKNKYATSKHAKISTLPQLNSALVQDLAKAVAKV
Sequence of Dual specificity protein kinase CLK2 (P49760 whole entry): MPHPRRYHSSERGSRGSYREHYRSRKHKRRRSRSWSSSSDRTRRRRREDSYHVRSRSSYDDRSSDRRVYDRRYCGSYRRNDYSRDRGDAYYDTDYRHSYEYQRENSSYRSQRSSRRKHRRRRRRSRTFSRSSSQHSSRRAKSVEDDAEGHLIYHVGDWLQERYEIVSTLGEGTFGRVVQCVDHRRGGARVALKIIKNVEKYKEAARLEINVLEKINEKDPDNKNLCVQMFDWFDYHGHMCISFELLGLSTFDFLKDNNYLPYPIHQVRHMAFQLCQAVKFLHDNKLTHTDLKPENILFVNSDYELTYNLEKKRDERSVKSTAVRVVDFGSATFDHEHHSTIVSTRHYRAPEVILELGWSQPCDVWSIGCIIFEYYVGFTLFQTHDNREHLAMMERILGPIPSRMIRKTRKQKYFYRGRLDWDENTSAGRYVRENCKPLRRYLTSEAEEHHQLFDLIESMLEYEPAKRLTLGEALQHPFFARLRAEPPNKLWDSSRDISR
Sequence of Dual specificity protein kinase CLK4 (Q9HAZ1 whole entry): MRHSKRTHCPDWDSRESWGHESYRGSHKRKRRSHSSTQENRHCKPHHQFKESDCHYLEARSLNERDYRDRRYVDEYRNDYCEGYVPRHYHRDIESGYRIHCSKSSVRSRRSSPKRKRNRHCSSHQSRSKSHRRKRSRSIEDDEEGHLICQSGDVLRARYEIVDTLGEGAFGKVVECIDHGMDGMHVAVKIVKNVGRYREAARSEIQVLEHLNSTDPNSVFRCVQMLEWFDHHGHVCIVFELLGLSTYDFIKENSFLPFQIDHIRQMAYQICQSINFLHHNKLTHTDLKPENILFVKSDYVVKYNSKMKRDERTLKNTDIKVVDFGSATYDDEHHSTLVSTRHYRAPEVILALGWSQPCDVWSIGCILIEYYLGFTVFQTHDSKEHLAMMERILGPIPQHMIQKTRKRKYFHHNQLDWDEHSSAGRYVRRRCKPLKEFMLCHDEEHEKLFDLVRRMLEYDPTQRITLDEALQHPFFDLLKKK
Sequence of CDK6/cyclin D3 (Homo sapiens, UniProt Q00534) (P30281 whole entry): as the sequence (P30281 whole entry) above
Sequence of CDK6/cyclin D3 (Homo sapiens, UniProt Q00534) (Q00534 whole entry): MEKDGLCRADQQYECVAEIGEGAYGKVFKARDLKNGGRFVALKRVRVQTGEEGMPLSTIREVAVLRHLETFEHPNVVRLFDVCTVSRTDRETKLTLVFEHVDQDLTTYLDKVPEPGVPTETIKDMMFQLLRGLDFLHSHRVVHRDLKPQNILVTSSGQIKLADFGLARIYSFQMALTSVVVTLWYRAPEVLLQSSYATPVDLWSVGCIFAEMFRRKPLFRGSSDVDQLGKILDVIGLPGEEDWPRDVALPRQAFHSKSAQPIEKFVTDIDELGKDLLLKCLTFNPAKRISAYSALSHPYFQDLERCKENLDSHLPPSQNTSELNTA
Sequence of Dual specificity protein kinase CLK3 (P49761 whole entry): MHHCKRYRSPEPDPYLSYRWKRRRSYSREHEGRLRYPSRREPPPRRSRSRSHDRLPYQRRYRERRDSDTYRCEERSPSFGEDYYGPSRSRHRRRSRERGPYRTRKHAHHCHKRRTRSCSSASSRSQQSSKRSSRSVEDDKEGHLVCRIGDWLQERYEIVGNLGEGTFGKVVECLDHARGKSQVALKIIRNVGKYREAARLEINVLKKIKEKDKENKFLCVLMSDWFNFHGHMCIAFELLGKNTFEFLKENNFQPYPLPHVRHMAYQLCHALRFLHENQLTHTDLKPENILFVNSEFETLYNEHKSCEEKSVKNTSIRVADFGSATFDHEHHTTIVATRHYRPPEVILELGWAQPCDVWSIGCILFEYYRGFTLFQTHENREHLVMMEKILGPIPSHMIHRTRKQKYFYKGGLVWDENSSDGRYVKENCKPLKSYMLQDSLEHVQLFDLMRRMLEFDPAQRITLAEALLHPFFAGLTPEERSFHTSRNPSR
Sequence of CDK6/cyclin D3 (Homo sapiens, UniProt P30281+Q00534) (P30281 whole entry): as the sequence (P30281 whole entry) above
Sequence of CDK6/cyclin D3 (Homo sapiens, UniProt P30281+Q00534) (Q00534 whole entry): as the sequence (Q00534 whole entry) above

`CC(C)n1cnc2c(Nc3cc(N)cc(Cl)c3)nc(N[C@@H]3CCNC3)nc21` showed an EC50 ([1]; read-out: EC50) of 26.4 µM.
`CC(=O)Nc1cc(Cl)cc(Nc2nc(N[C@H]3CCCC[C@H]3N)nc3c2ncn3C(C)C)c1` showed an EC50 ([1]; read-out: EC50) of 17.5 µM.
`COc1ccc2c(C)nc(Nc3nc(C)c(C)c(=O)[nH]3)nc2c1` gave an EC50 [2] of 20 µM.
In the case of `COC(=O)c1c(/C(C#N)=C\N)c2ccc(Cl)c(Cl)c2n1C`, the inhibition [3] is reported as “Active” and the EC50 ([1]; read-out: EC50) is reported as 8 µM.
With `COc1ccc2c(C)nc(Nc3nc(C)c(C)c(O)n3)nc2c1` the inhibition [3] was “inactive”.
In the case of `CCn1cnc2c(Nc3cccc(Cl)c3)nc(N[C@@H]3CCCC[C@@H]3NC(C)=O)nc21` (racemic), the IC50 [4] is reported as over 1000 nM and the EC50 [1] is reported as “Not Active”.
Work on `O=C(O)COc1ccc(Cl)cc1Cl` yielded an Activity [3] of 21%.
For `CC(/C=C/[C@@H]1C[C@]2(CO2)CC(C)(C)O1)=C\C[C@H]1CC[C@@H](NC(=O)/C=C\[C@H](C)OC(=O)N(C)C)CC1`, the inhibition [3] was “Active”.
For `CC(C)n1ccc2c(Nc3cccc(Cl)c3)nc(N[C@H]3CCCC[C@H]3N)nc21` (racemic), the IC50 [4] was over 1000 nM and the inhibition [3] was “inactive”.
Work on `CC(C)n1cnc2c(Nc3cc(N)cc(Cl)c3)nc(N[C@H]3CCCC[C@@H]3N)nc21` yielded an EC50 ([1]; read-out: EC50) of 23.5 µM.
Work on `C#CCCCCCCCCCCC(=O)CC(O)COC(C)=O` (centres undefined) yielded an Activity [3] of 14%.
`CC(C)n1cnc2c(Nc3cc(N)cc(Cl)c3)nc(N[C@@H]3CCCC[C@H]3N)nc21` gave an EC50 ([1]; read-out: EC50) of 9.7 µM.
`CC(=O)Nc1cc(Cl)cc(Nc2nc(N[C@@H]3CCCC[C@@H]3N)nc3c2ncn3C(C)C)c1` (racemic) [listing 1 of 2 here] showed an IC50 [4] of 19 nM, an IC50 [5] of 13 nM and an EC50 ([1]; read-out: EC50) of 8.1 µM. For the same molecule, the IC50 [6] was 64 nM and the IC50 (CDK4/Cyclin D3 [7]) was 930 nM.
With `CC(C)n1cnc2c(Nc3cccc(Cl)c3)nc(N[C@@H]3CCCC[C@H]3N)nc21` the fold change (FC) [3] was over 3 and the EC50 ([1]; read-out: EC50) was 4.5 µM.
In the case of `CCN1/C(=C/C(C)=O)Sc2ccc(Cl)cc21`, the inhibition [3] is reported as “inactive”.
`CC(=O)Oc1ccc(/C=C/c2cc(OC(C)=O)cc(OC(C)=O)c2)cc1` gave an Activity [3] of 17%.
`CC(C)n1cnc2c(Nc3cc(N)cc(Cl)c3)nc(N[C@H]3CCNC3)nc21` showed an EC50 ([1]; read-out: EC50) of 12 µM.
In the case of `COCCNc1nc(Nc2cccc(Cl)c2)c2ncn(C(C)C)c2n1`, the solubility [8] is reported as “Insoluble” and the EC50 [1] is reported as “Not Active”.
Work on `CC(=O)Nc1cc(Cl)cc(Nc2nc(N[C@@H]3CCCC[C@@H]3N)nc3c2ncn3C(C)C)c1` (racemic) [listing 2 of 2 here] yielded a fold change (FC) [3] of over 3.
With `CC(C)n1cnc2c(Nc3cccc(Cl)c3)nc(N[C@H]3CCCC[C@H]3N)nc21` the fold change (FC) [3] was over 3 and the EC50 ([1]; read-out: EC50) was 12.2 µM.
Work on `CC1=Nc2ccc(Cl)cc2S(=O)(=O)N1` yielded an Activity [3] of 11%.
With `CCn1cnc2c(Nc3cccc(Cl)c3)nc(N[C@@H]3CCCC[C@@H]3N)nc21` (racemic) the IC50 [9] was 382 nM, the inhibition [10] was “Active” and the IC50 (CDK6/cyclin D3 [11]) was over 1000 nM. The IC50 [4] was 148 nM, the IC50 [5] was 111 nM and the fold change (FC) [3] was over 3. The EC50 ([1]; read-out: EC50) was 4.2 µM, the IC50 [6] was 104 nM and the IC50 [12] was over 1000 nM. The IC50 (CDK4/Cyclin D3 [7]) was 573 nM.
In the case of `CC(C)n1cnc2c(Nc3cc(N)cc(Cl)c3)nc(N[C@H]3CCCNC3)nc21`, the EC50 ([1]; read-out: EC50) is reported as 12.9 µM.
Work on `CCn1cnc2c(Nc3cccc(Cl)c3)nc(N[C@@H]3CCCC[C@H]3N)nc21` yielded a fold change (FC) [3] of over 3 and an EC50 ([1]; read-out: EC50) of 7.8 µM.
Molecule `CC(C)n1cnc2c(Nc3cc(N)cc(Cl)c3)nc(N[C@H]3CCCC[C@H]3N)nc21` has an EC50 ([1]; read-out: EC50) of 18.7 µM.
For `Clc1cccc(Nc2nnc(-c3ccccc3)c3ccccc23)c1`, the Activity [3] was 11%.
With `COc1ccc2c(c1)/C(=C/c1cnc[nH]1)C(=O)N2` the Activity [3] was 53%.
With `CC(C)[C@H](CO)Nc1nc(Nc2cc(N)cc(Cl)c2)c2ncn(C(C)C)c2n1` [AMINOPURVALANOL] the inhibition [10] was “Active” and the EC50 ([1]; read-out: EC50) was 12 µM.
With `CC(C)n1cnc2c(Nc3cc(N)cc(Cl)c3)nc(N[C@@H]3CCCC[C@@H]3N)nc21` the IC50 [9] was 532 nM, the IC50 (CDK6/cyclin D3 [13]) was over 1000 nM and the EC50 ([1]; read-out: EC50) was 3 µM. The IC50 [12] was over 1000 nM and the IC50 (CDK4/Cyclin D3 [14]) was over 1000 nM.
`CCn1cnc2c(Nc3cccc(Cl)c3)nc(N[C@H]3CCCC[C@@H]3N)nc21` showed a fold change (FC) [3] of over 3 and an EC50 ([1]; read-out: EC50) of 22 µM.
In the case of `CC(C)n1cnc2c(Nc3cc(N)cc(Cl)c3)nc(N[C@@H]3CCCNC3)nc21`, the EC50 ([1]; read-out: EC50) is reported as 14 µM.
In the case of `CNC(=O)O[C@@H](C)/C=C\C(=O)N[C@H]1CC[C@@H](C/C=C(C)/C=C/[C@@H]2C[C@]3(CO3)CC(C)(C)O2)CC1`, the EC50 ([1]; read-out: EC50) is reported as 0.8 µM.
`CC(C)n1cnc2c(Nc3cc(N)cc(Cl)c3)nc(N[C@@H]3CCCC[C@@H]3N)nc21` (racemic) gave an IC50 [9] of 973 nM, an IC50 (CDK6/cyclin D3 [11]) of over 1000 nM and an IC50 [4] of 18 nM. The IC50 [5] was 16 nM, the EC50 ([1]; read-out: EC50) was 6.5 µM and the IC50 [6] was 54 nM. For the same molecule, the IC50 [12] was over 1000 nM and the IC50 (CDK4/Cyclin D3 [7]) was over 1000 nM.
In the case of `CC(=O)Nc1cc(Cl)cc(Nc2nc(N[C@@H]3CCCC[C@@H]3N)nc3c2ncn3C(C)C)c1`, the IC50 [9] is reported as over 1000 nM, the IC50 (CDK6/cyclin D3 [11]) is reported as over 1000 nM and the EC50 ([1]; read-out: EC50) is reported as 7.3 µM.
